From patent US20100041089A1, “IMPROVED METHOD FOR DETECTING CHEMICAL […]” (priority 2006, published 2010)

Tested on: yeast genes (expressed mRNA)
Assay: DNA chip measurement of expressed mRNA of yeast genes after culture with a toxic chemical substance
Assay type: cell-based, Saccharomyces cerevisiae S288C
Procedure, shortened: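 S. cerevisiae S288C grown at 25 °C in YPD, exposed in log phase for 2 h to a toxicant at growth-inhibiting, non-lethal concentration. Cy3/Cy5-labelled cDNA from poly(A) mRNA hybridized to whole-genome chip at 65 °C >12 h. Ratio to untreated control, ≥2 significant.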

In the case of `Oc1cc(Cl)c(Cl)cc1Cl` [(6), 2,4,5-Trichlorophenol], the “The level of expressed mRNA in the presence of chemical substance/The level of expressed mRNA in the absence of chemical substance” value (yeast gene YJR054W, cultured two hours with substance) is reported as 0.7, the “The level of expressed mRNA in the presence of chemical substance/The level of expressed mRNA in the absence of chemical substance” value (yeast gene YKL039W) is reported as 4.9 and the “The level of expressed mRNA in the presence of chemical substance/The level of expressed mRNA in the absence of chemical substance” value (yeast gene YKL071W, cultured two hours with substance) is reported as 18.6. The “The level of expressed mRNA in the presence of chemical substance/The level of expressed mRNA in the absence of chemical substance” value (yeast gene YKL086W, cultured two hours with substance) was 1.0, the “The level of expressed mRNA in the presence of chemical substance/The level of expressed mRNA in the absence of chemical substance” value (yeast gene YKL151C, cultured two hours with substance) was 2.0 and the “The level of expressed mRNA in the presence of chemical substance/The level of expressed mRNA in the absence of chemical substance” value (yeast gene YKL153W, cultured two hours with substance) was 2.9. For the same molecule, the “The level of expressed mRNA in the presence of chemical substance/The level of expressed mRNA in the absence of chemical substance” value (yeast gene YKL195W, cultured two hours with substance) was 2.5, the “The level of expressed mRNA in the presence of chemical substance/The level of expressed mRNA in the absence of chemical substance” value (yeast gene YKR076W) was 4.7 and the “The level of expressed mRNA in the presence of chemical substance/The level of expressed mRNA in the absence of chemical substance” value (yeast gene YKR091W, cultured two hours with substance) was 1.0. For the same molecule, the “The level of expressed mRNA in the presence of chemical substance/The level of expressed mRNA in the absence of chemical substance” value (yeast gene YLR054C, cultured two hours with substance) was 1.2, the “The level of expressed mRNA in the presence of chemical substance/The level of expressed mRNA in the absence of chemical substance” value (yeast gene YLR149C, cultured two hours with substance) was 1.4 and the “The level of expressed mRNA in the presence of chemical substance/The level of expressed mRNA in the absence of chemical substance” value (yeast gene YLR152C, cultured two hours with substance) was 2.1. The “The level of expressed mRNA in the presence of chemical substance/The level of expressed mRNA in the absence of chemical substance” value (yeast gene YLR194C, cultured two hours with substance) was 0.9, the “The level of expressed mRNA in the presence of chemical substance/The level of expressed mRNA in the absence of chemical substance” value (yeast gene YLR280C, cultured two hours with substance) was 0.9 and the “The level of expressed mRNA in the presence of chemical substance/The level of expressed mRNA in the absence of chemical substance” value (yeast gene YLR324W, cultured two hours with substance) was 1.2. The “The level of expressed mRNA in the presence of chemical substance/The level of expressed mRNA in the absence of chemical substance” value (yeast gene YLR350W, cultured two hours with substance) was 1.6, the “The level of expressed mRNA in the presence of chemical substance/The level of expressed mRNA in the absence of chemical substance” value (yeast gene YLR387C, cultured two hours with substance) was 1.9 and the “The level of expressed mRNA in the presence of chemical substance/The level of expressed mRNA in the absence of chemical substance” value (yeast gene YLR460C, cultured two hours with substance) was 0.6. For the same molecule, the “The level of expressed mRNA in the presence of chemical substance/The level of expressed mRNA in the absence of chemical substance” value (yeast gene YML117W, cultured two hours with substance) was 1.0, the “The level of expressed mRNA in the presence of chemical substance/The level of expressed mRNA in the absence of chemical substance” value (yeast gene YML128C, cultured two hours with substance) was 5.1 and the “The level of expressed mRNA in the presence of chemical substance/The level of expressed mRNA in the absence of chemical substance” value (yeast gene YMR009W, cultured two hours with substance) was 1.2. The “The level of expressed mRNA in the presence of chemical substance/The level of expressed mRNA in the absence of chemical substance” value (yeast gene YMR067C, cultured two hours with substance) was 1.4, the “The level of expressed mRNA in the presence of chemical substance/The level of expressed mRNA in the absence of chemical substance” value (yeast gene YMR090W, cultured two hours with substance) was 3.8 and the “The level of expressed mRNA in the presence of chemical substance/The level of expressed mRNA in the absence of chemical substance” value (yeast gene YMR095C, cultured two hours with substance) was 0.7. For the same molecule, the “The level of expressed mRNA in the presence of chemical substance/The level of expressed mRNA in the absence of chemical substance” value (yeast gene YMR097C, cultured two hours with substance) was 1.2, the “The level of expressed mRNA in the presence of chemical substance/The level of expressed mRNA in the absence of chemical substance” value (yeast gene YMR102C, cultured two hours with substance) was 6.3 and the “The level of expressed mRNA in the presence of chemical substance/The level of expressed mRNA in the absence of chemical substance” value (yeast gene YMR107W, cultured two hours with substance) was 1.0. The “The level of expressed mRNA in the presence of chemical substance/The level of expressed mRNA in the absence of chemical substance” value (yeast gene YMR140W, cultured two hours with substance) was 17.1, the “The level of expressed mRNA in the presence of chemical substance/The level of expressed mRNA in the absence of chemical substance” value (yeast gene YMR173W (stress protein genes)) was 5.0 and the “The level of expressed mRNA in the presence of chemical substance/The level of expressed mRNA in the absence of chemical substance” value (yeast gene YMR180C, cultured two hours with substance) was 2.4. The “The level of expressed mRNA in the presence of chemical substance/The level of expressed mRNA in the absence of chemical substance” value (yeast gene YMR184W, cultured two hours with substance) was 0.9, the “The level of expressed mRNA in the presence of chemical substance/The level of expressed mRNA in the absence of chemical substance” value (yeast gene YMR191W, cultured two hours with substance) was 1.0 and the “The level of expressed mRNA in the presence of chemical substance/The level of expressed mRNA in the absence of chemical substance” value (yeast gene YMR295C, cultured two hours with substance) was 1.9. For the same molecule, the “The level of expressed mRNA in the presence of chemical substance/The level of expressed mRNA in the absence of chemical substance” value (yeast gene YMR316W, cultured two hours with substance) was 0.7, the “The level of expressed mRNA in the presence of chemical substance/The level of expressed mRNA in the absence of chemical substance” value (yeast gene YNL044W, cultured two hours with substance) was 0.9 and the “The level of expressed mRNA in the presence of chemical substance/The level of expressed mRNA in the absence of chemical substance” value (yeast gene YNL074C, cultured two hours with substance) was 1.7. The “The level of expressed mRNA in the presence of chemical substance/The level of expressed mRNA in the absence of chemical substance” value (yeast gene YNL092W, cultured two hours with substance) was 1.2, the “The level of expressed mRNA in the presence of chemical substance/The level of expressed mRNA in the absence of chemical substance” value (yeast gene YNL115C, cultured two hours with substance) was 9.1 and the “The level of expressed mRNA in the presence of chemical substance/The level of expressed mRNA in the absence of chemical substance” value (yeast gene YNL156C, cultured two hours with substance) was 1.3. The “The level of expressed mRNA in the presence of chemical substance/The level of expressed mRNA in the absence of chemical substance” value (yeast gene YNL160W (stress protein genes)) was 5.8, the “The level of expressed mRNA in the presence of chemical substance/The level of expressed mRNA in the absence of chemical substance” value (yeast gene YNL190W, cultured two hours with substance) was 0.5 and the “The level of expressed mRNA in the presence of chemical substance/The level of expressed mRNA in the absence of chemical substance” value (yeast gene YNL208W, cultured two hours with substance) was 1.4. The “The level of expressed mRNA in the presence of chemical substance/The level of expressed mRNA in the absence of chemical substance” value (yeast gene YNL234W, cultured two hours with substance) was 1.3, the “The level of expressed mRNA in the presence of chemical substance/The level of expressed mRNA in the absence of chemical substance” value (yeast gene YNL281W, cultured two hours with substance) was 0.9 and the “The level of expressed mRNA in the presence of chemical substance/The level of expressed mRNA in the absence of chemical substance” value (yeast gene YNL300W, cultured two hours with substance) was 0.4. For the same molecule, the “The level of expressed mRNA in the presence of chemical substance/The level of expressed mRNA in the absence of chemical substance” value (yeast gene YNL305C, cultured two hours with substance) was 1.1, the “The level of expressed mRNA in the presence of chemical substance/The level of expressed mRNA in the absence of chemical substance” value (yeast gene YNR064C, cultured two hours with substance) was 2.1 and the “The level of expressed mRNA in the presence of chemical substance/The level of expressed mRNA in the absence of chemical substance” value (yeast gene YNR068C, cultured two hours with substance) was 0.4. The “The level of expressed mRNA in the presence of chemical substance/The level of expressed mRNA in the absence of chemical substance” value (yeast gene YOL032W, cultured two hours with substance) was 2.1, the “The level of expressed mRNA in the presence of chemical substance/The level of expressed mRNA in the absence of chemical substance” value (yeast gene YOL036W, cultured two hours with substance) was 1.2 and the “The level of expressed mRNA in the presence of chemical substance/The level of expressed mRNA in the absence of chemical substance” value (yeast gene YOL047C, cultured two hours with substance) was 1.5. The “The level of expressed mRNA in the presence of chemical substance/The level of expressed mRNA in the absence of chemical substance” value (yeast gene YOL071W, cultured two hours with substance) was 1.7, the “The level of expressed mRNA in the presence of chemical substance/The level of expressed mRNA in the absence of chemical substance” value (yeast gene YOL082W, cultured two hours with substance) was 1.8 and the “The level of expressed mRNA in the presence of chemical substance/The level of expressed mRNA in the absence of chemical substance” value (yeast gene YOL083W, cultured two hours with substance) was 4.5. The “The level of expressed mRNA in the presence of chemical substance/The level of expressed mRNA in the absence of chemical substance” value (yeast gene YOL117W, cultured two hours with substance) was 2.0, the “The level of expressed mRNA in the presence of chemical substance/The level of expressed mRNA in the absence of chemical substance” value (yeast gene YOL131W, cultured two hours with substance) was 1.1 and the “The level of expressed mRNA in the presence of chemical substance/The level of expressed mRNA in the absence of chemical substance” value (yeast gene YOL150C, cultured two hours with substance) was 5.2. For the same molecule, the “The level of expressed mRNA in the presence of chemical substance/The level of expressed mRNA in the absence of chemical substance” value (yeast gene YOL162W, cultured two hours with substance) was 1.2, the “The level of expressed mRNA in the presence of chemical substance/The level of expressed mRNA in the absence of chemical substance” value (yeast gene YOR019W, cultured two hours with substance) was 1.3 and the “The level of expressed mRNA in the presence of chemical substance/The level of expressed mRNA in the absence of chemical substance” value (yeast gene YOR197W, cultured two hours with substance) was 1.3. The “The level of expressed mRNA in the presence of chemical substance/The level of expressed mRNA in the absence of chemical substance” value (yeast gene YOR248W, cultured two hours with substance) was 0.2, the “The level of expressed mRNA in the presence of chemical substance/The level of expressed mRNA in the absence of chemical substance” value (yeast gene YOR255W, cultured two hours with substance) was 0.5 and the “The level of expressed mRNA in the presence of chemical substance/The level of expressed mRNA in the absence of chemical substance” value (yeast gene YOR382W, cultured two hours with substance) was 13.1. For the same molecule, the “The level of expressed mRNA in the presence of chemical substance/The level of expressed mRNA in the absence of chemical substance” value (yeast gene YOR383C) was 6.8, the “The level of expressed mRNA in the presence of chemical substance/The level of expressed mRNA in the absence of chemical substance” value (yeast gene YPL052W, cultured two hours with substance) was 1.9 and the “The level of expressed mRNA in the presence of chemical substance/The level of expressed mRNA in the absence of chemical substance” value (yeast gene YPL087W, cultured two hours with substance) was 4.3. For the same molecule, the “The level of expressed mRNA in the presence of chemical substance/The level of expressed mRNA in the absence of chemical substance” value (yeast gene YPL196W, cultured two hours with substance) was 2.0, the “The level of expressed mRNA in the presence of chemical substance/The level of expressed mRNA in the absence of chemical substance” value (yeast gene YPL206C, cultured two hours with substance) was 1.8 and the “The level of expressed mRNA in the presence of chemical substance/The level of expressed mRNA in the absence of chemical substance” value (yeast gene YPL222W, cultured two hours with substance) was 2.2. The “The level of expressed mRNA in the presence of chemical substance/The level of expressed mRNA in the absence of chemical substance” value (yeast gene YPR023C, cultured two hours with substance) was 1.4, the “The level of expressed mRNA in the presence of chemical substance/The level of expressed mRNA in the absence of chemical substance” value (yeast gene YPR079W, cultured two hours with substance) was 1.0 and the “The level of expressed mRNA in the presence of chemical substance/The level of expressed mRNA in the absence of chemical substance” value (yeast gene YPR151C, cultured two hours with substance) was 1.6.
